Experimental data: paper PMC4618635 (Pharmacology Research & Perspectives, 2015)

Key:
Format in all cases: cell-based
hERG potassium channel [1] = molecular target: hERG potassium channel (Homo sapiens, UniProt Q12809); assay: whole-cell patch clamp, HEK cells stably expressing hERG, tail current block
hERG potassium channel [2] = molecular target: hERG potassium channel (Homo sapiens, UniProt Q12809, F656A); assay: whole-cell patch clamp, CHO cells transiently expressing F656A hERG, high [K+]
hERG potassium channel [3] = molecular target: hERG potassium channel (Homo sapiens, UniProt Q12809, Y652A); assay: whole-cell patch clamp, CHO cells transiently expressing Y652A hERG
Sequence of hERG potassium channel (Homo sapiens, UniProt Q12809, Y652A) (Q12809 whole entry Y652A): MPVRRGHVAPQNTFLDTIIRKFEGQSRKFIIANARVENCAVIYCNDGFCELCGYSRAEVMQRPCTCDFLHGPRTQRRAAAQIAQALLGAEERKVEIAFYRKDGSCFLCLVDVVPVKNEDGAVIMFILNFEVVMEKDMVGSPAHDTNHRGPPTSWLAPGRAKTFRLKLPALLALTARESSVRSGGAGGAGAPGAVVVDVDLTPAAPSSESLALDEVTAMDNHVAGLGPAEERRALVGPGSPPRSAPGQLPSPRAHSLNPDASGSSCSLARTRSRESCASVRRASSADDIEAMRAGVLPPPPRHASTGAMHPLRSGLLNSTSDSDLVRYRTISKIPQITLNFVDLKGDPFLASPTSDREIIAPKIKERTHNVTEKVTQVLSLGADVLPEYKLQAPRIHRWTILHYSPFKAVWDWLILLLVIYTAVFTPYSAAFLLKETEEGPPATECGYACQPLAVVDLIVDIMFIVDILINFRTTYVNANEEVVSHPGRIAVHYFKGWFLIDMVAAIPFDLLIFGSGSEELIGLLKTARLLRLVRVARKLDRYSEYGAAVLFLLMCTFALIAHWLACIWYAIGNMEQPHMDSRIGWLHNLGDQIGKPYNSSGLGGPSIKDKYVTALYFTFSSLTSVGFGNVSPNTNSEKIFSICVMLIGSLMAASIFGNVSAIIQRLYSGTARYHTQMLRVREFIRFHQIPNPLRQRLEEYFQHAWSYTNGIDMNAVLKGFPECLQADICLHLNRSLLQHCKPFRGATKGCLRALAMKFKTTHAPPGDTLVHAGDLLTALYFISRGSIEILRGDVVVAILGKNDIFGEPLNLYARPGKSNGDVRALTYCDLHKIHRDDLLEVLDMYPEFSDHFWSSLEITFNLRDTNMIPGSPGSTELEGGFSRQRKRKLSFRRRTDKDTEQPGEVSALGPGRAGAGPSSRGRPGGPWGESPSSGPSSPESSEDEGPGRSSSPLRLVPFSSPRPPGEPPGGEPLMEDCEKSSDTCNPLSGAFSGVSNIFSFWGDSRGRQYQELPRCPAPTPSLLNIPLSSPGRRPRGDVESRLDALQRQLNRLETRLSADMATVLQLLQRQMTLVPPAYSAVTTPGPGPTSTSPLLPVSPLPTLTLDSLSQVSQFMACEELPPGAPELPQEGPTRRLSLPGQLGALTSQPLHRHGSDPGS

Sequence of hERG potassium channel (Homo sapiens, UniProt Q12809, F656A) (Q12809 whole entry F656A): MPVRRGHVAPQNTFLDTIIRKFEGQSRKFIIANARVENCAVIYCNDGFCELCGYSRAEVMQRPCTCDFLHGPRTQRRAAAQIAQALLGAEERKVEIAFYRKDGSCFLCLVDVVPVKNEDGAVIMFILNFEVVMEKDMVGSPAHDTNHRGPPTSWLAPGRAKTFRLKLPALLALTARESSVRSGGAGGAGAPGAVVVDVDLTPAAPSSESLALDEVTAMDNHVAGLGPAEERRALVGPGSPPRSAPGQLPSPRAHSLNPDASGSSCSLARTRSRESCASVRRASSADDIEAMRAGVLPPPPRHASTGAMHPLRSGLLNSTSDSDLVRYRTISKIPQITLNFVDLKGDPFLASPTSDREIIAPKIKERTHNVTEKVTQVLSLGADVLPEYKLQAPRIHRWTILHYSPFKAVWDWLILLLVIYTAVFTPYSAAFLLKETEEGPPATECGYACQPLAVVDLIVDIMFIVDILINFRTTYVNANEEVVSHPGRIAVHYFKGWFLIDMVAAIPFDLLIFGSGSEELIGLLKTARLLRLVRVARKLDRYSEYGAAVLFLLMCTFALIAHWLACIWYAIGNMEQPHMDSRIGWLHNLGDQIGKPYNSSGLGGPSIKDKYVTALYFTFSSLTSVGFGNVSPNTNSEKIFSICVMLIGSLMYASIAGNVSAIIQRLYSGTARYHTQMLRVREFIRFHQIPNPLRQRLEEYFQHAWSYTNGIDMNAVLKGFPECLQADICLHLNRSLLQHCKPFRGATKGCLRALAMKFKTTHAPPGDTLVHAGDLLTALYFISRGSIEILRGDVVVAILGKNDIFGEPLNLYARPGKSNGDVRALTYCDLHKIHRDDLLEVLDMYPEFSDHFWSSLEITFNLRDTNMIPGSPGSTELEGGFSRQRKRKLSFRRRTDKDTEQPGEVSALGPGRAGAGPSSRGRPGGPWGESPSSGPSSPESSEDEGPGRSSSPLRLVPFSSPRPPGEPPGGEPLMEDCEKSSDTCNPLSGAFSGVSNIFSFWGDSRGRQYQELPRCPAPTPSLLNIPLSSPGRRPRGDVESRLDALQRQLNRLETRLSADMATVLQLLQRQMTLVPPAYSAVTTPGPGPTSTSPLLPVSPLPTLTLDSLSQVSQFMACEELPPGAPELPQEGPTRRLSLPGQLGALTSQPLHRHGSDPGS
Sequence of hERG potassium channel (Homo sapiens, UniProt Q12809) (Q12809 whole entry): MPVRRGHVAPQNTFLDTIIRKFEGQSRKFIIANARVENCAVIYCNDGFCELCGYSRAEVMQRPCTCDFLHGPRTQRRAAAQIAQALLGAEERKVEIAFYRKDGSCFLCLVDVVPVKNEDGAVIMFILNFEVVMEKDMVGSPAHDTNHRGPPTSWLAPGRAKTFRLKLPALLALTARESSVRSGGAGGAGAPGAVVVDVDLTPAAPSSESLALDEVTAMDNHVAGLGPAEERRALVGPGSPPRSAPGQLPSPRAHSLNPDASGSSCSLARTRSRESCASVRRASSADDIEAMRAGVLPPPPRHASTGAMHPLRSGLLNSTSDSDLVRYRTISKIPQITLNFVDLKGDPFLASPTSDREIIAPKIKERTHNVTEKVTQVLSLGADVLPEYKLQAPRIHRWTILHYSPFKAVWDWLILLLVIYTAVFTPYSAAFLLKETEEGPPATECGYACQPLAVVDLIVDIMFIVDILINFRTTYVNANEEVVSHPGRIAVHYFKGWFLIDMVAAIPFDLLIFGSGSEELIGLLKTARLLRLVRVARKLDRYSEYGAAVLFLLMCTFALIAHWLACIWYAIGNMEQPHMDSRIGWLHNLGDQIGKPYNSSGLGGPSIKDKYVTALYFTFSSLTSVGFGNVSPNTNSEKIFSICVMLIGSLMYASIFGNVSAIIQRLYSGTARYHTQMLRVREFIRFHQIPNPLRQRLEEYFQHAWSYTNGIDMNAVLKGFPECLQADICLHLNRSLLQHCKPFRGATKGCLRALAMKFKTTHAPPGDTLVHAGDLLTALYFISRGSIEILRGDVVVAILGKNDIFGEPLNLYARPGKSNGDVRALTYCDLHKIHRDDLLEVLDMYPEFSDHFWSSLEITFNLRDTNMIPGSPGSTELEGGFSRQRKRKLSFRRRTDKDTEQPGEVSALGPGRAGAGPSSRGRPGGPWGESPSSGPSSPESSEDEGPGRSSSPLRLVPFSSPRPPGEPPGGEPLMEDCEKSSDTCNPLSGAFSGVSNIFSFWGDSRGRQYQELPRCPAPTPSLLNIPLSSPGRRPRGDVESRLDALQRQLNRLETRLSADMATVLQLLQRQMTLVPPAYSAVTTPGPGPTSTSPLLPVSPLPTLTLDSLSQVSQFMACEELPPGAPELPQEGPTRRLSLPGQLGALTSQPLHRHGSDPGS

SMILES: Cc1cccc(C)c1OCC(C)N (stereo not drawn) [mexiletine]
- IC50 (hERG potassium channel [1]): 3.7 ± 0.7 µM
- IC50 (hERG potassium channel [2]): 111 ± 1.8 µM
- IC50 (hERG potassium channel [3]): 41.6 ± 6.6 µM
